Source: US9920039B2, “1,2,4-Oxadiazol compounds active against gram-positive pathogens” (UNIVERSITÀ DEGLI STUDI DI MILANO—BICOCCA, priority 2013, dated 2018)
≈ marks a conversion by molar mass, not a printed value. Like-named read-outs stand apart in the source and are kept apart here.

Key:
[1] = test system: Staphylococcus aureus ATCC 29213; assay: MIC by broth microdilution (CLSI); format: cell-based
Description: (§1) Several well characterized for their antibiotic-susceptibility phenotype Staphylococcus aureus isolates were used for the determination of the in vitro antibacterial activity of the studied compounds. In particular, S. aureus ATCC 29213 reference standard strain and S. aureus M923 (collection strain) were used as MSSA strains. Among MRSA, S. aureus MU50 (ATCC 700699) reference standard strain and two collection strains (433 and F511) were used for susceptibility assays.
(§2) The in vitro antibacterial activity of the new agents was studied by determining their minimum inhibitory concentrations (MICs) by means of the broth microdilution method according to the Clinical and Laboratory Standards Institute (CLSI) guidelines.[16] Briefly, serial 2-fold dilutions of each compound were made using the Cation adjusted Mueller-Hinton broth (CAMHB) in microtitre plates with 96 wells. Dimethyl sulfoxide (DMSO) was used as solvent for all the synthesized compounds. An equal volume of the bacterial inoculum (1×10^6 CFU/mL) was added to each well on the microtitre plate containing 0.05 mL of the serial antibiotic dilutions. The microtitre plate was then incubated at 37° C. for 18-24 h after which each well was analysed for the presence of bacterial growth. The MIC was defined as the lowest concentration of antimicrobial agent able to cause inhibition of bacterial growth as shown by the lack of turbidity of the culture medium. […] Final DMSO concentrations were also taken into account in all the biological assays.
(§3) The antimicrobial activities, summarized in Table 2, were determined by the “gold standard” method of broth microdilution, as recommended by the Clinical Laboratory Standards Institute (CLSI) (See the Experimental Section). […] In detail, the bacterial strains were tested: Staphylococcus aureus ATCC 29213, a clinical strain of methicillin-susceptible S. aureus (M923), S. aureus MU50 (methicillin-resistant—MRSA), and two methicillin-resistant clinical strains, 433 and F511.
(§4) The antimicrobial activities, summarized in Table 3, were determined by the “gold standard” method of broth microdilution, as recommended by the Clinical Laboratory Standards Institute (CLSI) (See the Experimental Section). The minimum inhibitory concentration (MIC) values were expressed in μg/mL. […] In detail, the tested bacterial strains were: Staphylococcus aureus ATCC 29213, a clinical strain of methicillin-susceptible S. aureus (M923), S. aureus MU50 (methicillin-resistant—MRSA) strain, and two methicillin-resistant clinical strains, 433 and F511.

MRSA clinical strain 433 = assay: MIC by broth microdilution (CLSI); format: cell-based, Staphylococcus aureus; settings: MRSA 433
Description: as §1, §2, §3, §4

[2] = test system: MRSA clinical strain F511; assay: MIC by broth microdilution (CLSI); format: cell-based, Staphylococcus aureus; settings: Staphylococcus aureus
Description: as §1, §2, §3, §4

[3] = test system: S. aureus MU50 (ATCC 700699), methicillin-resistant (MRSA); assay: MIC by broth microdilution (CLSI); format: cell-based, Staphylococcus aureus
Description: as §1, §2, §3, §4

[4] = test system: methicillin-susceptible S. aureus (M923); assay: MIC by broth microdilution (CLSI); format: cell-based, Staphylococcus aureus; settings: Staphylococcus aureus
Description: as §1, §2, §3, §4

[5] = test system: 6 ATCC (4MSSA, 2 MRSA)plus45 MRSA all LZD sensitive; assay: MIC on strain panel (Table 4); format: cell-based, Staphylococcus aureus; settings: 6 ATCC plus 45 MRSA; for MIC-range: tested range ≤0.06 - >128; for MIC50 / MIC90: Staphylococcus aureus; for MIC50: read-out: MIC50; for MIC90: read-out: MIC90
Description: as §2

[6] = test system: 12 MRSE all LZD sensitive; assay: MIC on strain panel (Table 4); format: cell-based, Staphylococcus epidermidis; settings: for MIC50 / MIC90: Staphylococcus epidermidis; for MIC50: read-out: MIC50; for MIC90: read-out: MIC90
Description: as §2

ATCC E. faecalis 29212 = assay: MIC by broth microdilution (Table 5); format: cell-based, Enterococcus faecalis
Procedure: Dimethyl sulfoxide (DMSO) was used as solvent for all the synthesized compounds. An equal volume of the bacterial inoculum (1×10^6 CFU/mL) was added to each well on the microtitre plate containing 0.05 mL of the serial antibiotic dilutions. The microtitre plate was then incubated at 37° C. for 18-24 h after which each well was analysed for the presence of bacterial growth. The MIC was defined as the lowest concentration of antimicrobial agent able to cause inhibition of bacterial growth as shown by the lack of turbidity of the culture medium. […] Final DMSO concentrations were also taken into account in all the biological assays.

[7] = test system: Linezolid-resistant S. epidermidis Strains 1-10; assay: MIC by broth microdilution (Table 5); format: cell-based, Staphylococcus epidermidis
Description: as §2

[8] = test system: Linezolid-resistant S. hominis Strain 11; assay: MIC by broth microdilution (Table 5); format: cell-based, Staphylococcus hominis; settings: S. hominis Strain 11, linezolid-resistant
Description: as §2

[9] = test system: 11 Linezolid-resistant CoNS; assay: MIC summary on strain panel (Table 5); format: cell-based, Staphylococcus epidermidis, Staphylococcus hominis; settings: 11 Linezolid-resistant CoNS
Description: as §2

[10] = test system: 45 Linezolid-susceptible MRSA; assay: MIC summary on strain panel (Table 5); format: cell-based, Staphylococcus aureus
Description: In particular, eleven linezolid-resistant coagulase-negative staphylococci (CoNS) (ten S. epidermidis and one S. hominis) were investigated. The eleven linezolid-resistant strains were isolated in several hospital settings between 2010 and 2011 from positive blood cultures. For the […], recently isolated from patients with cystic fibrosis, showing different profiles of multi-resistance to different classes of antimicrobials, was used (Table 4 and 5).
as §2

[11] = test system: mitochondrial protein synthesis (OXPHOS complexes) in HepG2 cells; assay: Oxidative phosphorylation (OXPHOS) assay; settings: HepG2; linezolid 100 μg/mL, A4bS 10-100 μg/mL; vs non-treated cells; FIG. 6
Description: This assay (Nadaciva S. et al., 2010) is used to monitor the level of mitochondrial protein synthesis of some key proteins in the process of oxidative phosphorylation of eukaryotic cells, comparing it with the level of synthesis of mitochondrial proteins encoded by nuclear DNA. This study allows us to analyze the effects of A4bS on the proteins encoded by mitochondrial DNA (mtDNA).
The data represent the mean±SEM of three separate experiments performed in triplicate. Statistical significance is obtained by the Student's test compared to the […].

[12] = Staphylococcus aureus, racemic form, Table 3, read-out: MIC
[13] = racemic form, Table 3, read-out: MIC
[14] = MSSA M923, racemic form, Table 3, read-out: MIC
[15] = ATCC S. aureus 29213, resolved enantiomers, Table 5, read-out: MIC
[16] = S. epidermidis Strain 1, linezolid-resistant
[17] = S. epidermidis Strain 2, linezolid-resistant
[18] = S. epidermidis Strain 3, linezolid-resistant
[19] = S. epidermidis Strain 4, linezolid-resistant
[20] = S. epidermidis Strain 5, linezolid-resistant
[21] = S. epidermidis Strain 6, linezolid-resistant
[22] = S. epidermidis Strain 7, linezolid-resistant
[23] = S. epidermidis Strain 8, linezolid-resistant
[24] = S. epidermidis Strain 9, linezolid-resistant
[25] = S. epidermidis Strain 10, linezolid-resistant
[26] = Staphylococcus aureus, racemic mixture, Table 2, read-out: MIC

| SMILES | MIC [2, 13] [µg/mL] | MIC [4, 14] [µg/mL] | MIC-range [5] [µg/mL] | MIC50 [5] [µg/mL] | MIC90 [5] [µg/mL] | MIC50 [6] [µg/mL] | MIC90 [6] [µg/mL] | MIC [1, 15] [µg/mL] | MIC (ATCC E. faecalis 29212) [µg/mL] | MIC [7, 16] [µg/mL] | MIC [7, 17] [µg/mL] | MIC [7, 18] [µg/mL] | MIC [7, 19] [µg/mL] | MIC [7, 20] [µg/mL] | MIC [7, 21] [µg/mL] | MIC [7, 22] [µg/mL] | MIC [7, 23] [µg/mL] | MIC [7, 24] [µg/mL] | MIC [7, 25] [µg/mL] | MIC [8] [µg/mL] | also measured |
| --- | --- | --- | --- | --- | --- | --- | --- | --- | --- | --- | --- | --- | --- | --- | --- | --- | --- | --- | --- | --- | --- |
| CNC(=S)NCC1CN(c2ccc(-c3nc(C)no3)cc2)C(=O)O1 (racemic) [Compound B4a, 1-((3-(4-(3-methyl-1,2,4-oxadiazol-5-yl)phenyl)-oxazolidin-2-one-5-yl)methyl)-3-methylthiourea] | 6.25 (≈ 18 µM) | 6.25 (≈ 18 µM) | 1 to 16 | 8 | 16 | 64 (≈ 184 µM) | > 128 |  |  |  |  |  |  |  |  |  |  |  |  |  | MIC ([1]; Staphylococcus aureus, ATCC29213, ATCC 29213, racemic form, Table 3, read-out: MIC): 6.25 µg/mL (≈ 18 µM); MIC (MRSA clinical strain 433; [12]): 3.12 µg/mL (≈ 9 µM); MIC [3, 12]: 1.6 µg/mL (≈ 4.61 µM); melting point: 189.4 to 191.8 °C |
| CC(=S)NC[C@@H]1CN(c2ccc(-c3nc(C)no3)c(F)c2)C(=O)O1 [Compound A4bR] |  |  |  |  |  |  |  | 64 (≈ 183 µM) | 32 (≈ 91.3 µM) | 128 (≈ 365 µM) | > 128 | > 128 | 128 (≈ 365 µM) | 128 (≈ 365 µM) | 64 (≈ 183 µM) | > 128 | 128 (≈ 365 µM) | > 128 | 128 (≈ 365 µM) | 128 (≈ 365 µM) | MIC50 [9]: 128 µg/mL (≈ 365 µM); MIC90 [9]: 128 µg/mL (≈ 365 µM); MIC50 [10]: 128 µg/mL (≈ 365 µM) |
| CC(=S)NC[C@@H]1CN(c2ccc(-c3nc(C)no3)cc2)C(=O)O1 [Compound A4aR] |  |  |  |  |  |  |  | 128 (≈ 385 µM) | > 128 | > 128 | > 128 | > 128 | > 128 | > 128 | > 128 | > 128 | > 128 | > 128 | > 128 | > 128 | MIC50 [9]: > 128 µg/mL; MIC90 [9]: > 128 µg/mL; MIC-range [9]: > 128 µg/mL; MIC50 [10]: > 128 µg/mL |
| CC(=O)NC[C@H]1CN(c2ccc(N3CCOCC3)c(F)c2)C(=O)O1 [Linezolid, reference compound] | 3.12 (≈ 9.26 µM) | 3.12 (≈ 9.26 µM) | 0.25 to 16 | 2 | 4 | 32 (≈ 94.9 µM) | 64 (≈ 190 µM) |  |  |  |  |  |  |  |  |  |  |  |  |  | MIC ([1]; ATCC 29213, racemic form, Table 3): ≤0.4 µg/mL; MIC ([1]; Staphylococcus aureus, ATCC29213, ATCC 29213, racemic mixture, Table 2, read-out: MIC): ≤ 0.4 µg/mL; MIC (MRSA clinical strain 433; racemic form, Table 3): 1.6 µg/mL (≈ 4.74 µM); MIC (MRSA clinical strain 433; [26]): 1.6 µg/mL (≈ 4.74 µM); MIC ([2]; MRSA, racemic mixture, Table 2): 3.13 µg/mL (≈ 9.28 µM); MIC [3, 26]: 0.8 µg/mL (≈ 2.37 µM); MIC ([3]; racemic form, Table 3): 0.8 µg/mL (≈ 2.37 µM); MIC ([4]; MSSA, racemic mixture, Table 2): 3.13 µg/mL (≈ 9.28 µM); MIC range [6]: 32 to 64 µg/mL; effect on proteins synthesized by mtDNA (in words) [11]: significant decrease |
